Laboratory results taken from patent US20110053919A1, “Active Compound Combinations Having Insecticidal and Acaricidal Properties” (BAYER CROPSCIENE AG, priority 2006, published 2011).

Legend:
Assay type in all cases: in vivo
[1] = system: green peach aphid (Myzus persicae); assay: Myzus persicae test (spray treatment of infested cabbage leaves); details: single active compound
From the text: (§1) The expected action for a given combination of two active compounds can be calculated as follows, according to S. R. Colby, Weeds 15 (1967), 20-22:
(§2) • X is the kill rate, expressed as a percentage of the untreated control, when employing active compound A at an application rate of m g/ha or in a concentration of m ppm, • Y is the kill rate, expressed as a percentage of the untreated control, when employing active compound B at an application rate of n g/ha or in a concentration of n ppm and • E is the kill rate, expressed as a percentage of the untreated control, when employing active compounds A and B at application rates of m and n g/ha or in a concentration of m and n ppm, then
(§3) If the actual kill rate exceeds the calculated value, the kill of the combination is superadditive, i.e. a synergistic effect is present. In this case, the actually observed kill rate must exceed the value calculated using the above formula for the expected kill rate (E).
(§4) Solvents: 78 parts by weight of acetone • • 1.5 parts by weight of dimethylformamide Emulsifier: 0.5 part by weight of alkylaryl polyglycol ether
(§5) To produce a suitable preparation of active compound, 1 part by weight of active compound is mixed with the stated amounts of solvents and emulsifier, and the concentrate is diluted with emulsifier-containing water to the desired concentration.
Cabbage leaves (Brassica oleracea) which are heavily infested by the green peach aphid (Myzus persicae) are treated by spraying with the active compound preparation of the desired concentration.
After the desired period of time, the kill in % is determined. 100% means that all aphids have been killed; 0% means that none of the aphids have been killed. The kill rates determined are entered into Colby's formula.

[2] = system: larvae of the army worm (Spodoptera frugiperda); assay: Spodoptera frugiperda larvae test (sprayed cabbage leaves); details: single active compound
From the text: as §1, §2, §3
Spodoptera frugiperda Larvae Test
as §4, §5
Cabbage leaves (Brassica oleracea) are treated by spraying with the active compound preparation of the desired concentration and are populated with larvae of the army worm (Spodoptera frugiperda) while the leaves are still moist.
After the desired period of time, the kill in % is determined. 100% means that all caterpillars have been killed; 0% means that none of the caterpillars have been killed. The kill rates determined are entered into Colby's formula.

[3] = system: larvae of the mustard beetle (Phaedon cochleariae); assay: Phaedon cochleariae larvae test (sprayed cabbage leaves); details: 100 g/ha, single active compound
From the text: as §1, §2, §3
Phaedon cochleariae Larvae Test
as §4, §5
Cabbage leaves (Brassica oleracea) are treated by spraying with the active compound preparation of the desired concentration and are populated with larvae of the mustard beetle (Phaedon cochleariae) while the leaves are still moist.
After the desired period of time, the kill in % is determined. 100% means that all beetle larvae have been killed; 0% means that none of the beetle larvae have been killed. The kill rates determined are entered into Colby's formula.

[4] = system: greenhouse red spider mite (Tetranychus urticae); assay: Tetranychus test, OP-resistant/spray treatment (bean leaf disks); details: 0.16 g/ha, single active compound
From the text: as §1, §2, §3
OP-Resistant/Spray Treatment
as §4, §5
Disks of bean leaves (Phaseolus vulgaris) which are infested by all stages of the greenhouse red spider mite (Tetranychus urticae) are sprayed with an active compound preparation of the desired concentration.
After the desired period of time, the activity in % is determined. 100% means that all spider mites have been killed; 0% means that none of the spider mites have been killed.

Row | Structure (SMILES) | Kill in % after 1d ([1]; 0.8 g/ha) | Kill in % after 2d ([2]; 100 g/ha) | Kill in % after 1d ([1]; 100 g/ha) | Kill in % after 2d [3] | Kill in % after 2d ([2]; 20 g/ha) | Kill in % after 1d ([1]; 4 g/ha) | Kill in % after 1d ([1]; 20 g/ha) | Kill in % after 6d [4]
1 | CC1=NNC(=O)N(/N=C/c2cccnc2)C1 [pymetrozine] | 40% |  |  |  |  |  |  | 
2 | CC(COc1ccc(Oc2ccccc2)cc1)Oc1ccccn1 (centres unmarked) [pyriproxifen, pyriproxyfen] |  | 0% | 0% |  |  |  |  | 
3 | CC(C)N1C(=O)N(c2ccccc2)CS/C1=N\C(C)(C)C [buprofezin] |  |  |  | 0% |  |  |  | 
4 | CCOC(=O)OC1=C(c2cc(C)ccc2C)C(=O)NC12CCC(OC)CC2 (centres unmarked) [compound (IIa)] | 0% |  |  | 0% | 17% | 0% | 0% | 10%
5 | Cc1ccc(/N=C/N(C)/C=N/c2ccc(C)cc2C)c(C)c1 [amitraz] |  |  |  |  | 0% |  |  | 0%
6 | N#CCNC(=O)c1cnccc1C(F)(F)F [flonicamid] |  |  | 30% | 0% |  |  |  | 
7 | CCOC(=O)OC1=C(c2cc(C)ccc2C)C(=O)N[C@]12CC[C@@H](OC)CC2 [compound (II)] | 0% |  |  | 0% | 17% | 0% | 0% | 10%
